From patent publication US6251950A, “Aliphatic propargylamines as cellular rescue agents” (University of Saskatchewan, priority 1998, dated 2001)
Counter-ions that a name gives are not always drawn. Like-named read-outs stand apart in the source and are kept apart here.

Columns and labels:
damaged neurons = conditions: cited from earlier work
[1] = target: T1, rat liver mitochondrial monoamine oxidase B (Rattus norvegicus, UniProt P19643); experiment: biochemical; type: biochemical; conditions: for Comparison to most effective MAO-B inhibitor in group / MAO-B inhibitory activity: in vitro; for Comparison to most effective MAO-B inhibitor in group: relative to most effective inhibitor in group; for IC50: substrate PE (β-phenylethylamine) 1.9 × 10^-5 M, average of at least 2 independent triplicate experiments
T1 sequence (P19643 1-520): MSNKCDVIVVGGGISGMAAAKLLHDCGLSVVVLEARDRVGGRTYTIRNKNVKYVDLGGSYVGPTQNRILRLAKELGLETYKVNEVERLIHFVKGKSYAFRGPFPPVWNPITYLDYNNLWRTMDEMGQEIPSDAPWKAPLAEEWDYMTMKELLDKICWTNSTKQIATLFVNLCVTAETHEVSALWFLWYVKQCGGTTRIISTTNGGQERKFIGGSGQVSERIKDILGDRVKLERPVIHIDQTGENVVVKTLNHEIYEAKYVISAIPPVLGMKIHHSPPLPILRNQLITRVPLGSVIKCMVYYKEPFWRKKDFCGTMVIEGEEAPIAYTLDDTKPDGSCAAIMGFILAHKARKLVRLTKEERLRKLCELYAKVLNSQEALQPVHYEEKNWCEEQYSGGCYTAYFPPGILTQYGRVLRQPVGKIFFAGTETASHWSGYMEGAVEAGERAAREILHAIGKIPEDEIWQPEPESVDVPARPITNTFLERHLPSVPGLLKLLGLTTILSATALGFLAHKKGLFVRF
Method: Enzyme activity was assessed using a radiometric method as previously described (Yu et al, 1992).

[2] = tested on: pyramidal neurons in the hippocampus (CA1 neurons); experiment: Hypoxia/ischaemia model, CA1 neuron survival; type: in vivo, rat; conditions: for response vs control in vivo at 0.1 µmol/kg: read-out: Percentage survival of CA1 neurones, of vehicle treated controls (Table 4); for mean survival of CA1 neurons, percentage of vehicle treated controls (Table 2): **P < 0.01
Source text: This model produces selective, unilateral lesioning of the pyramidal neurons in the hippocampus which involves neuronal apoptosis.
Values are the mean survival of CA1 neurons expressed as a percentage of
vehicle treated controls (vehicle = 100%) ± sem (n = 6 - 10).

mouse brain MAO-B = target: T2, mouse brain MAO-B (Mus musculus, UniProt Q8BW75); experiment: Inhibition in vivo of brain MAO-B activity after intraperitoneal administration; conditions: i.p.
T2 construct: Striata were dissected from the brain two hours after i.p. administration of the drugs; from tissue; host or cells: mouse brain striata, dissected two hours after i.p. dosing
T2 sequence (Q8BW75 1-520): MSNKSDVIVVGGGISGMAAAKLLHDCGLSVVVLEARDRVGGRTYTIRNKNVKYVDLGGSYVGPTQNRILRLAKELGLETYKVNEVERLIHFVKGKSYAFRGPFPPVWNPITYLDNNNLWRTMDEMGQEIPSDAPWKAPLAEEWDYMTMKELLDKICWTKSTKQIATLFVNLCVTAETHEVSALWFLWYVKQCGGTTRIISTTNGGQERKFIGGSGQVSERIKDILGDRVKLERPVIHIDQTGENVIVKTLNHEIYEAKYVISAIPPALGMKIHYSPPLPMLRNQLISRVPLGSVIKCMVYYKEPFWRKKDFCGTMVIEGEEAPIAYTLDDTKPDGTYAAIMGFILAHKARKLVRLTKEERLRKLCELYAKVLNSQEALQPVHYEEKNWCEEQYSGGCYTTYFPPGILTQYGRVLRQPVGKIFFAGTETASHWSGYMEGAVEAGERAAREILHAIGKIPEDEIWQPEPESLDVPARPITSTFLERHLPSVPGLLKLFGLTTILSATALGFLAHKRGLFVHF
Method: Results are the average of two independent triplicate experiments for each i.p. dose. The doses were 0.5, 1, 2, 5, 10, 20 mg/Kg. Striata were dissected from the brain two hours after i.p. administration of the drugs. MAO-B activities were then determined immediately (Yu et al 1992). The values were estimated from dose-response curves.

[3] = tested on: cerebellar granule cells (CGC); experiment: in vitro; type: cell-based, Wistar rat; conditions: for blocking of Ara C induced apoptosis: 10^-7 M (FIG. 1c); for Percent Apoptotic Nuclei (Control + compound): no Ara C, control 4.2 ± 0.3; for Percent Apoptotic Nuclei (Control + compound) / Percent Apoptotic Nuclei (Ara C + compound): R-2HMP 100 nM, S-2HMP 10 μM, S-2HPA 10 μM; for Percent Apoptotic Nuclei (Control + compound) / Percent Apoptotic Nuclei (Ara C + compound) / Percent Apoptotic Nuclei (Ara C + R-2HMP + compound): mean ± sem of 4 cultures; for Percent Apoptotic Nuclei (Ara C + compound): with Ara C 100 μM, *P < 0.05 compared to Ara C alone; for Percent Apoptotic Nuclei (Ara C + R-2HMP + compound): antagonism, Ara C 100 μM + R-2HMP 100 nM + S-enantiomer 10 μM, #P < 0.05 compared to Ara C + R-2HMP
Source text: Cultures of cerebellar granule cells (CGC) can be induced into apoptosis by the addition of a high concentration of cytosine arabinoside (Ara C) (Dessi et al., 1995) and it has been shown that this is a p53 dependent apoptosis (Enokido et al, 1996). We have measured the antiapoptotic effect of N-(2-heptyl)propargylamine (2HPA) using this system and compared the results to those obtained with previously known aliphatic methyl propargylamines and deprenyl.
Cultures of CGC were obtained from 6-8 day old Wistar rat pups. Cultures were grown on glass in 35 mm petri dishes for 3 days and then used for experiments. 20 μl aliquots of drug solutions (Ara C, anti-apoptotic drugs, drug vehicles) were added to the medium of the cultures. 24 Hours later the cultures were fixed with FAM, and stained with bis-benzamide. Normal and apoptotic nuclei were counted to a total of 90-120 cells per culture. […] Concentrations in excess of 150 μM caused detachment of the cultures.
Compounds were added at the following concentrations: Ara C, 100 μM,

[4] = Rattus norvegicus, Neuron, sc, 0.1 μmol/kg, s.c., vehicle = 100%, ± sem (n = 6-10), *P < 0.05, **P < 0.01
[5] = 0.1 μmol/kg, s.c., vehicle = 100%, ± sem (n = 6-10)

C#CCNC(C)Cc1ccccc1 (centres unmarked) [Desmethyldeprenyl]
anti-apoptotic / neurorescue activity (damaged neurons): active as an anti-apoptotic drug

C#CCN(C)[C@@H](C)CCCC [Example S-2HxMP, N-(2-hexyl)-N-methyl-propargylamine]
Comparison to most effective MAO-B inhibitor in group [1]: 4.3% | IC50 [1]: 0.7 µM

C#CCN[C@H](C)CCCC.Cl [Example R-2HxPA, (R)-N-2-Hexylpropargylamine hydrochloride]
Comparison to most effective MAO-B inhibitor in group [1]: 0.8% | IC50 [1]: 4 µM

C#CCN(C)C(C)C [Example 2PrMP, N-(2-propyl)-N-methylpropargylamine]
response vs control in vivo at 0.1 µmol/kg [2, 4]: 255 ± 43% | activity in the hypoxia/ischaemia model ([2]; s.c.): slightly lower than those of the optimum branched chain compounds

C#CCNCC [EPA, N-ethylpropargylamine]
response vs control in vivo at 0.1 µmol/kg [2, 4]: 164 ± 18%

C#CCN(C)CC [EMP, N-ethyl-N-methylpropargylamine]
response vs control in vivo at 0.1 µmol/kg [2, 4]: 82 ± 19%

C#CCN(C)[C@H](C)CCCCC [Example R-2HMP, (R)-N-(2-heptyl)-N-methyl-propargylamine]
Comparison to most effective inhibitor (mouse brain MAO-B; in vivo, relative to R-2HMP): 100% | potency relative to R-deprenyl (mouse brain MAO-B; mouse brain MAO-B, fold more potent than R-deprenyl): 2.5 fold | ED50 (mouse brain MAO-B; mouse, ip, 2 h, PE 1.9 × 10^-5 M, striata two hours after administration, estimated from dose-response curves, read-out: IC50 (mg/Kg) (MAO-B, in vivo)): 0.2 mg/kg | blocking of Ara C induced apoptosis [3]: completely blocked | EC50 ([3]; Rattus norvegicus, inhibition of Ara C induced apoptosis (FIG. 1a, 1b)): 1 to 100 nM | Percent Apoptotic Nuclei (Control + compound) [3]: 4.8 ± 0.7% | Percent Apoptotic Nuclei (Ara C + compound) [3]: 6.3 ± 0.8% | mean survival of CA1 neurons, percentage of vehicle treated controls (Table 2) [2, 5]: 239 ± 35% | response vs control in vivo at 0.1 µmol/kg [2, 4]: 239 ± 35% | ED50 ([2]; Rattus norvegicus, Neuron, sc, subcutaneous administration): 0.001 to 0.01 µmol/kg | activity in the hypoxia/ischaemia model ([2]; s.c.): shows significant activity | Comparison to most effective MAO-B inhibitor in group [1]: 100% | IC50 [1]: 0.03 µM

C#CCNC(C)CCCCC (centres unmarked) [Example 2HPA, N-(2-heptyl)-propargylamine]
MAO-B inhibitory activity [1]: substantially reduced in comparison to those of the N-methyl compounds

C#CCN(C)[C@H](C)CCCC [Example R-2HxMP, N-(2-hexyl)-N-methyl-propargylamine]
Comparison to most effective MAO-B inhibitor in group [1]: 100% | IC50 [1]: 0.03 µM

CCCCC[C@@H](C)N [Example R-2HA, (R)-(2-heptyl)amine]
mean survival of CA1 neurons, percentage of vehicle treated controls (Table 2) [2, 5]: 90 ± 30% | activity in the hypoxia/ischaemia model ([2]; s.c.): neither increase nor decrease the CA1 neuronal death

C#CCNC(C)CCCC (centres unmarked) [Example 2HxPA, N-(2-hexyl)-propargylamines]
MAO-B inhibitory activity [1]: substantially reduced in comparison to those of the N-methyl compounds

C#CCNC(C)C.Cl [Example 2PrPA, N-2-Propylpropargylamine hydrochloride]
response vs control in vivo at 0.1 µmol/kg [2, 4]: 175 ± 20% | activity in the hypoxia/ischaemia model ([2]; s.c.): slightly lower than those of the optimum branched chain compounds

CCCCC[C@@H](C)NC [Example R-2HMA, (R)-N-(2-heptyl)-methylamine]
mean survival of CA1 neurons, percentage of vehicle treated controls (Table 2) [2, 5]: 85 ± 26% | activity in the hypoxia/ischaemia model ([2]; s.c.): neither increase nor decrease the CA1 neuronal death

C#CCN(C)C [DMP, N,N-dimethylpropargylamine]
response vs control in vivo at 0.1 µmol/kg ([2]; Rattus norvegicus, Neuron, sc): 117 ± 28%

C#CCN(C)[C@H](C)CC [Example R-2BuMP, (R)-N-(2-butyl)-N-methylpropargylamine]
response vs control in vivo at 0.1 µmol/kg ([2]; Rattus norvegicus, Neuron, sc): 297 ± 52%

C#CCN(C)CCCCCC [Example 1HxMP, N-(1-hexyl)-N-methylpropargylamine]
response vs control in vivo at 0.1 µmol/kg [2, 4]: 215 ± 24%

CCCC(C(=O)OCCN(CC)CC)(c1ccccc1)c1ccccc1 [proadifen]
effect on P450-dependent neurorescue properties of deprenyl (damaged neurons; pretreatment with P450 inhibitor): eliminates the neurorescue properties of deprenyl

C#CCN(C)CCC [Example 1PrMP, N-(1-propyl)-N-methylpropargylamine]
response vs control in vivo at 0.1 µmol/kg [2, 4]: 127 ± 31% | activity in the hypoxia/ischaemia model ([2]; s.c.): inactive

C#CCN(C)[C@@H](C)CC [Example S-2BuMP, (S)-N-(2-butyl)-N-methylpropargylamine]
response vs control in vivo at 0.1 µmol/kg ([2]; Rattus norvegicus, Neuron, sc): 139 ± 38%

C#CCNC [MPA, N-methylpropargylamine]
response vs control in vivo at 0.1 µmol/kg ([2]; Rattus norvegicus, Neuron, sc): 78 ± 31%

C#CCNC(C)CC (centres unmarked) [Example 2BuPA, N-(2-butyl)-propargylamine]
MAO-B inhibitory activity [1]: substantially reduced in comparison to those of the N-methyl compounds

C#CCN[C@@H](C)CC [Example S-2BuPA, (S)-N-(2-butyl)-propargylamine]
Comparison to most effective MAO-B inhibitor in group [1]: 0.2% | IC50 [1]: 500 µM

C#CCNCCCCCC [Example 1HxPA, N-1-Hexylpropargylamine hydrochloride]
response vs control in vivo at 0.1 µmol/kg [2, 4]: 179 ± 23%

C#CCN(C)[C@@H](C)CCCCC [Example S-2HMP, (S)-N-(2-heptyl)-N-methyl-propargylamine]
blocking of Ara C induced apoptosis [3]: did not | Percent Apoptotic Nuclei (Ara C + R-2HMP + compound) [3]: 15.1 ± 0.9% | antagonism of the anti-apoptotic action of the R-enantiomers ([3]; in words): antagonists of the anti-apoptotic action of the R-enantiomers | Percent Apoptotic Nuclei (Control + compound) [3]: 5.0 ± 0.6% | Percent Apoptotic Nuclei (Ara C + compound) [3]: 13.7 ± 1.1% | mean survival of CA1 neurons, percentage of vehicle treated controls (Table 2) [2, 5]: 112 ± 23% | response vs control in vivo at 0.1 µmol/kg [2, 4]: 112 ± 23% | Comparison to most effective MAO-B inhibitor in group [1]: 0.8% | IC50 [1]: 4 µM

C#CCN[C@H](C)CC.Cl [Example R-2BuPA, (R)-N-2-Butylpropargylamine hydrochloride]
response vs control in vivo at 0.1 µmol/kg [2, 4]: 263 ± 37% | Comparison to most effective MAO-B inhibitor in group [1]: 1.4% | IC50 [1]: 70 µM

C#CCNCCC.Cl [Example 1PrPA, N-1-Propylpropargylamine hydrochloride]
response vs control in vivo at 0.1 µmol/kg [2, 4]: 174 ± 29% | activity in the hypoxia/ischaemia model ([2]; s.c.): active

C#CCN(C)[C@@H](C)Cc1ccccc1 [S-deprenyl]
blocking of Ara C induced apoptosis [3]: did not

C#CCN[C@@H](C)CCCCC [Example S-2HPA, (S)-N-(2-heptyl)-propargylamine]
Percent Apoptotic Nuclei (Ara C + R-2HMP + compound) [3]: 13.8 ± 1.2% | antagonism of the anti-apoptotic action of the R-enantiomers ([3]; in words): antagonists of the anti-apoptotic action of the R-enantiomers | anti-apoptotic effect ([3]; in words): does not have an anti-apoptotic effect | Percent Apoptotic Nuclei (Control + compound) [3]: 4.7 ± 0.7% | Percent Apoptotic Nuclei (Ara C + compound) [3]: 14.2 ± 0.9% | mean survival of CA1 neurons, percentage of vehicle treated controls (Table 2) [2, 5]: 131 ± 19% | response vs control in vivo at 0.1 µmol/kg [2, 4]: 131 ± 19% | Comparison to most effective MAO-B inhibitor in group [1]: 0.1% | IC50 [1]: 30 µM
